Key:
anti-αGal antibody = assay: In vivo blood serum analysis: serum anti-αGal antibody neutralizing capacity in baboons; parameters: species or system baboon; conditions: monovalent oligosaccharide
Text: Pharmokinetics of αGal trisaccharides and αGal pentasaccharides in baboons. This example presents a study of the pharmokinetic profile and serum anti-αGal antibody neutralizing capacity in baboons of αGal trisaccharides and αGal pentasaccharides and previews the compounds' suitability for use in the prevention of hyperacute rejection of porcine organs xenotransplanted into baboons.
Three Baboons were outfitted with indwelling venous and arterial catheters to the femoral vessels, and held in place with the aid of a jacket. Oligosaccharides were administered through the catheter in a 15 minute continuous infusion.

[1] = Human dose and half-life estimates extrapolated from baboon pharmacokinetics; conditions: human patient of 70 Kg
Procedure: ^1 To achieve a steady state serum concentration for monovalent αGal pentasaccharide of 1 mM (i.e., 0.9 mg/mL) in a human patient of 70 Kg, it is estimated that a loading dose of 412 mg/Kg be administered in the form of a bolus or 15 minute infusion, followed by a continuous infusion of 30 g/h over a 14 day period (see Table 2 for further αGal trisaccharide and αGal pentasaccharide 2 infusion regimens).
The clearance is used to calculate the infusion rate needed to maintain a desired drug concentration. The half-life describes how quickly concentrations diminish with time. Mathematical formulations known in the art were applied to estimate the pharmacokinetic parameters of the αGal trisaccharide and αGal pentasaccharide. […] Compared to other drugs, the volumes of distribution of these oligosaccharides are low, less than the extravascular water volume (<400 mL/kg). The clearance is typical of compounds eliminated by GFR (glomerular filtration rate).

CC(=O)N[C@H]1[C@H](O[C@H]2[C@@H](O)[C@@H](CO)O[C@@H](O[C@H]3[C@H](O)[C@@H](O)C(O)O[C@@H]3CO)[C@@H]2O)O[C@H](CO)[C@@H](O[C@@H]2O[C@H](CO)[C@H](O)[C@H](O[C@H]3O[C@H](CO)[C@H](O)[C@H](O)[C@H]3O)[C@H]2O)[C@@H]1O (stereo partly drawn) [αGal pentasaccharide, Galα1-3Galβ1-4GlcNAcβ1-3Galβ1-4Glc]
Minimal serum (circulating) concentration required to inhibit hyperacute rejection / be efficacious in vivo (anti-αGal antibody): ≥ 1 mM
Estimated continuous infusion ([1]; 1 mM steady state, over a 14 day period): 30 g/h
Estimated loading dose (bolus or 15 minute infusion) ([1]; steady state serum concentration 1 mM (0.9 mg/mL)): 412 mg/kg
